Source: patent US7939509B2, “Partial and full agonists of A1 adenosine receptors” (Gilead Sciences, Inc., priority 2002, dated 2011)
“Also recorded” adds a separate entry of the source.

Experiments:
awake rats [1] = experiment: Insulin dose response to reduce FFA with and without Compound A in awake rats; assay type: in vivo, rat
Experimental: FIG. 6 graphically represents how Compound A potentates the effect of insulin in reducing FFA levels. Shown are the dose response curves for the effect of insulin to reduce FFA obtained in the absence and presence of Compound A (0.5 mg/kg) in awake rats. Both insulin and Compound A were given via IP injection. Each data point is the mean±SEM of the maximal (peak effect) percent decrease in FFA levels from baseline from three to five rats.
(§1) The anti-lipolytic effects of Compound A were studied in awake rats. Animals were fasted overnight before experimental use. On the day of the experiment, animals were put in metabolic cages and left undisturbed to acclimate to the environment for 1-2 hrs. An infusion set (21 G×¾″, 0.8×19 mm U.T.W., 3½″, 9 cm tubing, volume 0.15 ml) was connected to the arterial catheter for blood sampling. A 1% sodium citrate saline solution was used to flush the lines. A pre-treatment blood sample was obtained from each animal to determine baseline values for FFA and TG. Compound A was given via oral gavage, sc injection, iv injection, or iv infusion, as described, for each different series of experiments. Blood samples were collected into serum separator tubes (Becton Dickinson, Franklin Lakes, N.J.) at pre-determined times, Blood was allowed to clot, and then centrifuged at 8000 rpm for 4 min at 4° C. The serum was stored at −80° C. and was thawed at 4° C. for determinations of FFA and TG contents.
The effect of insulin (0.005-1 U/kg) to reduce serum FFA was determined in the absence and presence of a single dose (0.5 mg/kg) of Compound A (FIG. 6). Baseline FFA levels before insulin administration in vehicle and Compound A treated groups were 0.84±0.01 and 0.92±0.02 mM, respectively. […] The insulin dose response to reduce FFA levels was then repeated in the presence of Compound A (0.5 mg/kg). Compound A alone (0.5 mg/kg) caused an 18% decrease in FFA levels. The doses of insulin that cause 50% decrease (ED50) in FFA levels in the absence and presence of Compound A were 0.4 and 0.1 U/kg, respectively.

rats fed high fat diet = experiment: Oral glucose tolerance test after a single dose in high fat diet rats; assay type: in vivo, rat; conditions: 1 mg/kg oral gavage 15 min before 2 gm/kg glucose load, HF rats
Experimental: Data is presented as mean±SEM from number of animals indicated in the parenthesis for each group. […] All experimental procedures were performed under a protocol approved by the IACUC (CV Therapeutics, Inc.) and in accordance with the recommendations set forth in the Guide for the Care and Use of Laboratory Animals published by the National Research Council. Male Sprague-Dawley rats (225-250 gm) with either one or two indwelling catheters (carotid and jugular) were obtained from Charles River Laboratories (Wilmington, Mass.). Animals were housed 1 per cage in a room maintained on a 12 h light/dark cycle (light on 06.00-18.00 h) under constant temperature (22-25° C.) and with ad libitum access to food and water. Rats on normal diet (Chow) were fed standard laboratory chow (12% fat, 60% carbohydrate, and 28% protein) throughout the study, while animals in the high fat (HF) diet group were given a diet (TD88137 from Harlan Teklad, Madison, Wis.) containing 42% fat, 43% carbohydrate, and 15% protein. […] On the day of the experiment, animals were put in metabolic cages and left undisturbed to acclimate to the environment for 1-2 hrs. An infusion set (21 G×¾″, 0.8×19 mm U.T.W., 3½″, 9 cm tubing, volume 0.15 ml) was connected to the arterial catheter for blood sampling. A 1% sodium citrate saline solution was used to flush the lines. A pre-treatment blood sample was obtained from each animal to determine baseline values for glucose, insulin, FFA and TG. Blood samples were collected into plasma and serum separator tubes (Becton Dickinson, Franklin Lakes, N.J.) at pre-determined time points. Oral glucose tolerance test (OGTT) was performed by giving 2 gm/kg of glucose load. Compound A was given via an oral gavage 15 minutes prior to the glucose load. […] Statistical analysis of data from experiments with 2 treatment groups was performed using the unpaired Student's t-test. One way analysis of variance (ANOVA) followed by Newman-Keuls posthoc analysis was used for multiple comparisons. Data form OGTT was analyzed by calculating area under the curve (AUC) using prism graphpad software. […]

awake rats [2] = experiment: Cardiovascular measurements (heart rate, blood pressure) by telemetry in awake rats; assay type: in vivo, rat
Experimental: FIG. 7 presents the time-course of the effect of Compound A on (A) heart rate and (B) mean arterial pressure in awake rats as measured by telemetry. Compound A was given at various does (1, 5, and 25 mg·kg) by oral gavage at time 0. Each data point is the mean of individual values from the number of experiments indicated in parenthesis. The initial transient (10 Minutes) increase in heart rate subsequent to the injection of vehicle or Compound A is due to the stress caused by handling of the animals.
The effects of Compound A on heart rate and blood pressure were determined in a separate group of animals as heart rate is very easily affected in the un-anesthetized animal by animal handling and blood sampling. Rats were instrumented with radiotelemetered transmitters (Data Sciences) at least 3 weeks prior to experimentation. The ECG, blood pressure and temperature were recorded and heart rate calculated using a Dataquest ART Gold system (Version 2.2; Data Sciences Intl). The system consisted of a transmitter, i.e., biopotential sensor (Model TL11M2-C50-PXT), receivers (Model RPC-1), a consolidation matrix (BCM 100), a personal computer (Compaq DeskPro Series 3574) and Dataquest 4 software. Heart rate, blood pressure and temperature were measured at 5-minute intervals. Each recording lasted 10 seconds and all cardiac cycles within this period were averaged.

normal rats = experiment: Triglyceride production after Triton WR 1339 injection in rats; assay type: in vivo, rat
Experimental: FIG. 3 graphs the time-dependent increase of TG caused by Triton […] in the absence or presence of Compound A as described in Example 31. After a 4 hour fast, rats received either vehicle or Compound A (5 mg/kg) via SC injection. After 5 minutes, Triton (400 mg/kg) was given as a slow intravenous bolus. Data are presented as ±SEM of values from 7-8 animals. Slope of the lines (determined by linear regression analysis) was 5.6±0.1 and 3.8±0.2 for vehicle and Compound A groups, respectively. Data were analyzed using 2 way ANOVA followed by Bonferroni's post hoc test.
as §1
Compound A was synthesized by the Department of Medicinal and Bio-Organic chemistry of CV Therapeutics, Inc. Sodium citrate and Triton WR1339 were purchased from Sigma (St. Louis, Mo.). […] Serum FFA and TGs were measured using commercial kits from Wako Chemicals, Richmond, Va. Glucose and Insulin were measured using commercial kits from Wako Chemicals USA (Richmond, Va.).
To further investigate the mechanism of the decrease in TG levels by Compound A, total TG production was measured in normal rats. […]

awake rats [3] = experiment: Serum triglyceride (TG) levels in overnight-fasted awake rats; assay type: in vivo, rat
Experimental: All experimental procedures were performed under a protocol approved by the Institutional Animal Care and Use Committee of CV Therapeutics, Inc., and in accordance with the recommendations set forth in the Guide for the Care and Use of Laboratory Animals published by the National Research Council. Male Sprague-Dawley rats (225-250 gm) with either one or two indwelling catheters (carotid and jugular) were purchased from Charles River Laboratories (Wilmington, Mass.). Animals were housed 1 per cage in a room maintained on a 12 h light/dark cycle (light on 06.00-18.00 h) under constant temperature (22-25° C.) and with ad libitum access to food and water.
as §1
Compound A was synthesized by the Department of Medicinal and Bio-Organic chemistry of CV Therapeutics, Inc. Sodium citrate and Triton WR1339 were purchased from Sigma (St. Louis, Mo.). Nicotinic acid and PEG 400 were purchased from VWR (by EMD Chemicals). Triton WR 1339 was diluted in warm saline (˜37° C.) with frequent vortexing. Nicotinic acid was dissolved in saline. Compound A was dissolved in PEG 400, and then diluted with distilled water to make a 20% PEG drug solution. Serum FFA and TGs were measured using commercial kits from Wako Chemicals, Richmond, Va. Glucose and Insulin were measured using commercial kits from Wako Chemicals USA (Richmond, Va.).
All data are reported as mean±SEM. Statistical analysis of data from experiments with 2 treatment groups was performed using the unpaired Student's t-test. Two way analysis of variance followed by Bonferroni's test was used for multiple comparisons. Differences among treatment groups were considered to be significant when the probability of their occurrence by chance alone was <0.05.

C57BL/J6 mice = experiment: Hyperinsulinemic euglycemic clamp in C57BL/J6 mice on high fat diet for 12 weeks; assay type: in vivo, mouse; conditions: 2.5 mg/kg or 5.0 mg/kg ip 15 min prior to clamp
Experimental: C57BL/J6 mice were maintained on normal chow or a HF diet (Bovine Lard, 23 wt/wt %, 44 energy % provided by the lard) for 12 weeks to induce insulin resistance. At the end of 12 weeks a hyperinsulinemic euglycemic clamp analysis was performed to measure insulin sensitivity in the absence and presence of Compound A. Compound A was given via an ip injection 15 minutes before the clamp protocol was started. After an overnight fast, glucose turnover studies were performed as described previously (6; 11). Briefly, animals were anesthetized; an infusion needle was placed in one of the tail veins. Thereafter, a bolus of insulin was given and a hyperinsulinemic clamp was started by continuous infusion of insulin. Blood samples were taken every 10 minutes (tail bleeding) to monitor plasma glucose levels. A variable infusion of 12.5% D-glucose (in PBS) solution was started at time 0 and adjusted to maintain blood glucose at ˜6.0 mM. When steady state glucose levels were reached (approximately 1 hour after start of the insulin infusion) a final blood sample was taken (for measurement of plasma insulin) and the hyperinsulinemic euglycemic clamp was terminated.

For `O[C@@H]1[C@H](O)[C@@H](CSc2ccccc2F)O[C@H]1n1cnc2c(N[C@@H]3CCC[C@H]3O)ncnc21` [Compound A, 2-{6-[((1R,2R)-2-hydroxycyclopentyl)amino]purin-9-yl}(4S,5S,2R,3R)-5-[(2-fluorophenylthio)methyl]oxolane-3,4-diol], the “decrease in FFA levels by Compound A alone” value (awake rats [1]; 0.5 mg/kg IP) was 18%, the “leftward shift of the insulin dose-response to lower FFA” value (awake rats [1]; Compound A 0.5 mg/kg) was 4 fold and the “total glucose response area in OGTT” value (rats fed high fat diet) was “no differences”. The “total insulin response area (AUC) in OGTT” value (rats fed high fat diet) was “significantly (p<0.05) decreased; also recorded: no different than the insulin response of chow-fed rats given vehicle”, the “decrease in heart rate (calculated as area under the curve)” value (awake rats [2]; 25 mg/kg oral gavage) was 13±1% and the “effect on heart rate on increasing the dose” value (awake rats [2]; 50 mg/kg (data not shown)) was “no further decrease”. For the same molecule, the “effect on heart rate” value (awake rats [2]; 1 and 5 mg/kg oral gavage) was “did not have a significant effect”, the “effect on blood pressure” value (awake rats [2]; at the doses used (1, 5, 25 mg/kg oral gavage)) was “did not have any significant effect” and the “increase in serum TG caused by Triton vs vehicle-treated animals” value (normal rats; 180 minutes post-treatment, p<0.01) was “significantly less”. For the same molecule, the “slope of the time-dependent TG increase caused by Triton (linear regression)” value (normal rats; FIG. 3 legend: 5 mg/kg SC, Triton 400 mg/kg iv, 4 hour fast, vehicle 5.6±0.1) was 3.8±0.2, the “TG accumulation, slope of the line (linear regression)” value (normal rats; text: Triton 600 mg/kg, vehicle printed as 3.8±0.17, p<0.001) was 5.6 ± 0.12 mg/dL/min and the “decrease in TG levels” value (awake rats [3]; 2.5 mg/kg oral gavage) was 36%. The “serum TG level” value (awake rats [3]; 2.5 mg/kg oral gavage, from 54±4 mg/dl, p<0.05) was 35 ± 4 mg/dL, the “reduction in TG levels compared to vehicle-treated rats” value (awake rats [3]; 5 mg/kg oral gavage) was 41% and the “serum TG level” value (awake rats [3]; 5 mg/kg oral gavage, p<0.01) was 32 ± 4 mg/dL. The “reduction in TG levels compared to vehicle-treated rats” value (awake rats [3]; 10 mg/kg oral gavage) was 58%, the “serum TG level” value (awake rats [3]; 10 mg/kg oral gavage, p<0.01) was 23 ± 1 mg/dL and the “reduction of serum triglyceride levels, dose dependence” value (awake rats [3]; 2.5, 5, 10 mg/kg oral gavage) was “dose-dependent manner”. The “insulin-mediated glucose disposal / glucose infusion rate (GIR) vs untreated HF mice” value (C57BL/J6 mice) was “significant differences (p<0.01); also recorded: significantly greater (p<0.01)”.
